# Legend:
# [1] = Qualitative dissolution of amorphous Compound I in solvents; assay type: physicochemical; conditions: 40 mg sample
# Protocol: Amorphous Compound I was produced by dissolving Compound I in 1,4-dioxane and subsequent lyophilization. The amorphous solid form was confirmed by the lack of indicative peaks by XRPD. To the amorphous Compound I, solvent was added to the 12×40 mg samples to prepare slurries for thermal cycling. The material was readily soluble in many of the 12 solvents and therefore, several of the samples were thermally cycled as saturated solutions.
# [2] = biological target: A2AR (Homo sapiens, UniProt P29274); conditions: antagonist; has been reported (U.S. Ser. No. 15/875,106, PCT/US18/14352); cited from earlier work
# [3] = biological target: T1, A2BR (Homo sapiens, UniProt P29275); conditions: antagonist; has been reported (U.S. Ser. No. 15/875,106, PCT/US18/14352); cited from earlier work
# T1 sequence (P29275 1-332): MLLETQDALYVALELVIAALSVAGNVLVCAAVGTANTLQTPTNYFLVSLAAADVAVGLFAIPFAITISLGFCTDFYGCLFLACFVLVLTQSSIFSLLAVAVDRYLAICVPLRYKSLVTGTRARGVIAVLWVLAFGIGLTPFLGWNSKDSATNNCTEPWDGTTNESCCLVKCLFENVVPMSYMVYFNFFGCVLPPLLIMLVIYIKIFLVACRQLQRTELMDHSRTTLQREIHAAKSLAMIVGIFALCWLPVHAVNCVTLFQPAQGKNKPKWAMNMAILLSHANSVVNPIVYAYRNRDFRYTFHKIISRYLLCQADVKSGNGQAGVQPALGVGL
# [4] = Solid-state stability of Form I under stress storage, analysis by HPLC and XRPD; assay type: physicochemical
# Protocol: XRPD analysis was carried out on a PANalytical X'pert pro, scanning the samples between 3 and […] 2θ. The material was gently ground to release any agglomerates and loaded onto a multi-well plate with Kapton or Mylar polymer film to support the sample. The multi-well plate was then placed into the diffractometer and analyzed using Cu K radiation (α1λ=1.54060 Å; α2=1.54443 Å; β=1.39225 Å; α1: α2 ratio=0.5) running in transmission mode (step size 0.0130° 2θ) using 40 kV/40 mA generator settings.
# • Instrument: Agilient 1100 • Column: Zorbax Eclipse Plus C18 150 mm×3.0 mm, 3.5 μm particle size • Column Temperature: 35° C. • Autosampler Temperature: Ambient • UV wavelength: 228 nm • Injection Volume: 3 μL • Flow Rate: 1 mL/min • Mobile Phase A: Water (0.1% formic acid in 95:5 water:ACN) • Mobile Phase B: ACN (0.1% formic acid) • Gradient program: […]
# Vials containing a quantity of Form I of Compound I were subjected to a temperature of 40° C. at 75% relative humidity (RH) for one week. […] Additionally, vials containing a quantity of the crystalline material were subjected to a temperature of 80° C. in a closed vial for one week.
# [5] = Dynamic vapor sorption (DVS) hygroscopicity; assay type: physicochemical
# Protocol: Approximately 10 mg of sample was placed into a mesh vapor sorption balance pan and loaded into a DVS-1, DVS Intrinsic or DVS Advantage dynamic vapor sorption balance by Surface Measurement Systems. The sample was subjected to a ramping profile from 40-90% relative humidity (RH) at 10% increments, maintaining the sample at each step until a stable weight had been achieved (dm/dt 0.004%, minimum step length 30 min, maximum step length 500 min) at 25° C. After completion of the sorption cycle, the sample was dried using the same procedure to 0% RH and then a second sorption cycle back to 40% RH. Two cycles were performed. The weight change during the sorption/desorption cycles were plotted, allowing for the hygroscopic nature of the sample to be determined. XRPD analysis was then carried out on any solid retained.
# A quantity of Compound I Form I was analyzed by dynamic vapor sorption (DVS). The sample was subjected to a ramping profile from 40-90% RH at 10% increments, maintaining the sample at each step until a stable weight had been achieved at 25° C. After completion of the sorption cycle, the sample was dried using the same procedure to 0% RH and then a second sorption cycle back to 40% RH. Two cycles were performed. The weight change during the sorption/desorption cycles were plotted, allowing for the hygroscopic nature of the sample to be determined.
# [6] = Competitive 1:1 slurry experiments of the two forms; assay type: physicochemical; conditions: 1:1 slurry of Form I and Form III, variety of solvents
# Sequence of A2AR (P29274 whole entry): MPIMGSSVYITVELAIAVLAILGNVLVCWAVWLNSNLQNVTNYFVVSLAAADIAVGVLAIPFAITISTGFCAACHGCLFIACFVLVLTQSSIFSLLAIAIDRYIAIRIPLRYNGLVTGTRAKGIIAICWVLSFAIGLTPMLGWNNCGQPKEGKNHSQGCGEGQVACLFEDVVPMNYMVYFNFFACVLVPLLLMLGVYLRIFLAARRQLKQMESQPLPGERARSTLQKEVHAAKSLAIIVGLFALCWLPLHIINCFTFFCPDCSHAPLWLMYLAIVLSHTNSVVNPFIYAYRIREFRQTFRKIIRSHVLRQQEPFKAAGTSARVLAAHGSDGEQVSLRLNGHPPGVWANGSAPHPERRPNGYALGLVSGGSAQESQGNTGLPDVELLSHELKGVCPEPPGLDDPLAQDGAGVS
smiles,measurement,setting,value
"Cc1c(C#N)cccc1-c1cc(-c2cn(Cc3cccc(C(C)(C)O)n3)nn2)nc(N)n1 [amorphous Compound I, 3-[2-amino-6-(1-{[6-(2-hydroxypropan-2-yl)pyridin-2-yl]methyl}-1H-1,2,3-triazol-4-yl)pyrimidin-4-yl]-2-methylbenzonitrile]",Slurry or Solution,"[1]; 1,4-Dioxane, 200 μL",Solution
same,Slurry or Solution,"[1]; 2-Ethoxyethanol, 200 μL",solution
same,Slurry or Solution,"[1]; 25% Acetone/75% water, 200 μL",Solution
same,Slurry or Solution,"[1]; 25% MeCN/75% water, 300 μL",Slurry
same,Slurry or Solution,"[1]; Isopropanol, 400 μL",Slurry
same,Slurry or Solution,"[1]; Isopropyl acetate, 200 μL",Solution
same,Slurry or Solution,"[1]; Methanol, 200 μL",Solution
same,Slurry or Solution,"[1]; THF, 200 μL",Solution
same,Slurry or Solution,"[1]; Toluene, 700 μL",Slurry
same,Slurry or Solution,"[1]; acetonitrile, 400 μL",Slurry
same,Slurry or Solution,"[1]; dichloromethane, 200 μL",Solution
same,Slurry or Solution,"[1]; water, 700 μL",slurry
"Cc1c(C#N)cccc1-c1cc(-c2cn(Cc3cccc(C(C)(C)O)n3)nn2)nc(N)n1 [Compound I, 3-[2-amino-6-(1-{[6-(2-hydroxypropan-2-yl)pyridin-2-yl]methyl}-1H-1,2,3-triazol-4-yl)pyrimidin-4-yl]-2-methylbenzonitrile]",potency on A2AR,[2],less than 10 nM
same,potency on A2BR,[3],less than 10 nM
"Cc1c(C#N)cccc1-c1cc(-c2cn(Cc3cccc(C(C)(C)O)n3)nn2)nc(N)n1 [Form I of Compound I, 3-[2-amino-6-(1-{[6-(2-hydroxypropan-2-yl)pyridin-2-yl]methyl}-1H-1,2,3-triazol-4-yl)pyrimidin-4-yl]-2-methylbenzonitrile]","stability (decomposition, morphology change) by HPLC and XRPD",[4]; 40° C. at 75% relative humidity (RH) for one week,stable with no decomposition or morphology change observed
same,"stability (decomposition, morphology change) by HPLC and XRPD",[4]; 80° C. in a closed vial for one week,stable with no decomposition or change in morphology observed
same,hygroscopic nature,"[5]; DVS, 25° C.",slightly hygroscopic
same,XRPD analysis of resultant solid after DVS,[5]; after two sorption/desorption cycles,no change in morphology observed
same,maximum absorption of water (DVS),"[5]; at 90% relative humidity, 25° C., 0-90% RH range, reversible",1.1%
same,hysteresis upon cycling (DVS),"[5]; two cycles, 0-90% RH",No hysteresis was observed
"Cc1c(C#N)cccc1-c1cc(-c2cn(Cc3cccc(C(C)(C)O)n3)nn2)nc(N)n1 [Form III, 3-[2-amino-6-(1-{[6-(2-hydroxypropan-2-yl)pyridin-2-yl]methyl}-1H-1,2,3-triazol-4-yl)pyrimidin-4-yl]-2-methylbenzonitrile]",form conversion in competitive slurry,[6],converted to Form I
